Results reported in patent publication US20150344426A1, “COMPOUNDS AND THERAPEUTIC USES THEREOF” (ALZHEIMER'S INSTITUTE OF AMERICA, INC., priority 2012, published 2015).
Values joined by “and” are separate entries in the source; they are usually repeats but may differ in a detail not shown here. Equal entries are not always repeated. Where two headings read alike, the source gives them in different places.

Assays:
[1] = test system: HT1080 human fibrosarcoma cancer cells; assay: Anti-tumor activity in HT1080 human fibrosarcoma xenograft with twice daily dosing; type: in vivo; settings: for tumor regression: by Day 8
Experimental: One million HT1080 cells were implanted subcutaneously in the right flank of female nude mice (Crl:NU-Fox1^nu). When the median tumor volume (MTV) was approximately 209 mm^3, mice were randomized into four cohorts of ten animals. […] All cohorts were dosed twice daily for 7 days. The mice were observed daily for mortality and signs of toxicity. Tumor volumes and body weights were determined from Days 1 to 22. The results are depicted in FIG. 4.

[2] = Experiment 1: hepatic portal vein samples of rats after oral Example Compound 35; type: in vivo, female Sprague-Dawley rats; settings: 20 mg/kg, portal vein; for [Par. Cmp. A]: listed as Par. Cmp. A
Description: It is believed that Example Compound 35 metabolizes in vivo into Parent Compound A (i.e., it is believed that Example Compound 35 is a prodrug of Parent Compound A). The objective of this study was to determine the concentration of Example Compound 35 and Parent Compound A in hepatic portal vein samples of female Sprague-Dawley rats following oral administration of only Example Compound 35, and to quantify the extent of transport into hepatic portal circulation, if any, of Example Compound 35. A second objective was to determine the relative bioavailability of Parent Compound A in the portal vein following oral administration of Example Compound 35.
Experiment 1. Three female Sprague Dawley rats (200-215 g, Harlan Laboratories, Indianapolis, Ind.) with cannulae implanted surgically in the portal vein for blood sampling were used in this study. Example Compound 35, formulated in 50 mM Glycine pH 3.0 with 0.5% HPMC and 0.05% Tween-80, was administered by oral gavage (PO) at a dose of 20 mg/kg in a volume of 2 mL/kg. This dose is the molar equivalent of a 13.5 mg/kg dose of Parent Compound A. Portal blood samples were collected through the portal vein cannula from each animal at 0.25, 0.5, 1, 2, 4, and 8 hours following administration of compound. Samples were split into two fractions and one was supplemented with citrate buffer (final concentration 100 mM, pH 3.0) to stabilize Example Compound 35 and stop conversion of Example Compound 35 to Parent Compound A ex vivo during analysis. Samples were then processed to generate plasma and analyzed for Example Compound 35 by LC-MS/MS. Plasma derived from the second aliquot of blood was analyzed for Parent Compound A.
Pharmacokinetic parameters estimated for Parent Compound A included the maximum observed drug concentration (Cmax), time of maximum observed drug concentration (Tmax), apparent terminal half-life (t1/2), area under the concentration-time curve from time zero to 8 hours postdose (AUC(0-8)), and area under the concentration-time curve extrapolated to infinity (AUC(0-inf)). The bioavailability (% F) of Parent Compound A in portal vein samples relative to IV administration was also estimated.
Plasma samples were analyzed for Example Compound 35 or Parent Compound A concentration using a LC-MS/MS method. All sample runs met standard acceptance criteria for discovery purposes, and were based on a standard curve containing at least 7 points. At least half of quality control samples at each of the three concentrations tested, and two thirds of the entire quality control sample pool, were within 15% of their theoretical value. The r^2 value for each standard curve was ≧0.99. The quantitation range for the Example Compound 35 and Parent Compound A assays was 1 to 100 ng/mL and 5 to 2,500 ng/mL, respectively, using a 0.05 mL sample volume.
The data were entered into the PK software package WinNonlin® version 5.1.1. A complete data check was conducted to verify the accuracy of data entry.
Pharmacokinetic parameters were estimated on median plasma concentrations using extravascular input (PO). Nominal collection times after administration of compound were used for PK analyses. The use of a non-compartmental model provided an adequate fit of the data. Pharmacokinetic parameters estimated for Parent Compound A included the maximum observed drug concentration (Cmax), time of maximum observed drug concentration (Tmax), apparent terminal half-life (t1/2), apparent volume of distribution (Vz obs), apparent clearance (C1 obs), area under the concentration-time curve from time zero to 8 hours postdose of Example Compound 35 […], and area under the concentration-time curve extrapolated to infinity (AUC(0-inf)). Example Compound 35 was detected in only one 0.25 hour hepatic portal vein sample at 1.29 ng/mL. Any Example Compound 35 present in all of the other samples was below the quantitation limit of 1 ng/mL and pharmacokinetic parameters were not determined for those samples. […]

O=C(NCc1cccnc1)Nc1ccc(OCCc2ccccc2-c2ccccc2)cc1 [Parent Compound A, 1-{4-[2-(Biphenyl-2-yl)ethoxy]phenyl}-3-(pyridin-3-ylmethyl)urea]
tumor growth inhibition relative to vehicle ([1]; 3 mg/kg orally twice daily for seven days, Day 21): 60%
MTV increase ([1]; 3 mg/kg orally twice daily for seven days, end of dosing, Day 9): 221%
MTV increase ([1]; 3 mg/kg orally twice daily for seven days, end of the study, Day 21): 622%
tumor growth inhibition relative to vehicle ([1]; 4 mg/kg orally twice daily for seven days, Day 21): 81%
tumor regression ([1]; 4 mg/kg orally twice daily for seven days): 13%
MTV as % of the initial value ([1]; 4 mg/kg orally twice daily for seven days, end of dosing, Day 9): 87%
MTV increase ([1]; 4 mg/kg orally twice daily for seven days, end of the study, Day 21): 296%
tumor growth inhibition relative to vehicle ([1]; 5 mg/kg orally twice daily for seven days, Day 21): 85%
tumor regression ([1]; 5 mg/kg orally twice daily for seven days): 22%
MTV as % of the initial value ([1]; 5 mg/kg orally twice daily for seven days, end of dosing, Day 9): 78%
MTV increase ([1]; 5 mg/kg orally twice daily for seven days, end of the study, Day 21): 235%
tumor growth inhibition relative to vehicle ([1]; 7 mg/kg orally twice daily for seven days, Day 21): 89%
tumor regression ([1]; 7 mg/kg orally twice daily for seven days): 78%
MTV as % of the initial value ([1]; 7 mg/kg orally twice daily for seven days, end of dosing, Day 9): 22%
MTV increase ([1]; 7 mg/kg orally twice daily for seven days, end of the study, Day 21): 175%
tumor growth inhibition relative to vehicle ([1]; 9 mg/kg orally twice daily for seven days, Day 21): 95%
tumor regression ([1]; 9 mg/kg orally twice daily for seven days): 61%
MTV as % of the initial value ([1]; 9 mg/kg orally twice daily for seven days, end of dosing, Day 9): 39%
MTV increase ([1]; 9 mg/kg orally twice daily for seven days, end of the study, Day 21): 85%
animals with tumor volumes exceeding 1,500 mm^3 euthanized ([1]; Parent Compound A study, 3 mg/kg, cohort of ten): three
deaths ([1]; Parent Compound A study, 4 mg/kg, cohort of ten, two found dead, one euthanized for tumor volume): three
animals with no detectable tumor by the end of the study ([1]; Parent Compound A study, 5 mg/kg, cohort of ten): One
animals with no detectable tumor by the end of the study ([1]; Parent Compound A study, 7 mg/kg, cohort of ten): One
animals with no detectable tumor by the end of the study ([1]; Parent Compound A study, 9 mg/kg, cohort of ten): One
anti-tumor activity in the HT1080 xenograft model (summary statement) ([1]; administered orally, twice daily, all doses tested): significant anti-tumor activity
maximal reduction in median body weight ([1]; over the course of the study, all doses tested, orally twice daily): < 10 % of the initial weight
Tolerability ([1]; xenograft mice, all doses tested, orally twice daily): well tolerated
concentration at 0.25 h ([2]; female, Sprague-Dawley, rat, plasma (hepatic portal vein), po, 0.25 hr after oral Example Compound 35 20 mg/kg, read-out: Median [Par. Cmp. A]): 961 ng/mL
concentration at 0.5 h ([2]; female, Sprague-Dawley, rat, plasma (hepatic portal vein), po, 0.5 hr after oral Example Compound 35 20 mg/kg, read-out: Median [Par. Cmp. A]): 2820 ng/mL
concentration at 1 h ([2]; female, Sprague-Dawley, rat, plasma (hepatic portal vein), po, 1 hr after oral Example Compound 35 20 mg/kg, read-out: Median [Par. Cmp. A]): 2460 ng/mL
concentration at 2 h ([2]; female, Sprague-Dawley, rat, plasma (hepatic portal vein), po, 2 hr after oral Example Compound 35 20 mg/kg, individual rats, read-out: [Par. Cmp. A]): 1800 ng/mL
concentration at 2 h ([2]; female, Sprague-Dawley, rat, plasma (hepatic portal vein), po, 2 hr after oral Example Compound 35 20 mg/kg, read-out: Median [Par. Cmp. A]): 1930 ng/mL
concentration at 4 h ([2]; female, Sprague-Dawley, rat, plasma (hepatic portal vein), po, 4 hr after oral Example Compound 35 20 mg/kg, read-out: Median [Par. Cmp. A]): 1000 ng/mL
concentration at 8 h ([2]; female, Sprague-Dawley, rat, plasma (hepatic portal vein), po, 8 hr after oral Example Compound 35 20 mg/kg, read-out: Median [Par. Cmp. A]): 41 ng/mL
[Par. Cmp. A] ([2]; 0.25 hr after oral Example Compound 35 20 mg/kg, individual rats): 417.4 ng/mL and 2,306.7 ng/mL and 961.4 ng/mL
[Par. Cmp. A] ([2]; 0.5 hr after oral Example Compound 35 20 mg/kg, individual rats): 2,819.4 ng/mL and 2,818.9 ng/mL and 577.7 ng/mL
[Par. Cmp. A] ([2]; 1 hr after oral Example Compound 35 20 mg/kg, individual rats): 1,064.4 ng/mL and 2,455.1 ng/mL and 3,237.2 ng/mL
[Par. Cmp. A] ([2]; 2 hr after oral Example Compound 35 20 mg/kg, individual rats): 2,398.5 ng/mL and 1,930.2 ng/mL
[Par. Cmp. A] ([2]; 4 hr after oral Example Compound 35 20 mg/kg, individual rats): 1,004.3 ng/mL and 2,254.2 ng/mL and 177.4 ng/mL
[Par. Cmp. A] ([2]; 8 hr after oral Example Compound 35 20 mg/kg, individual rats): 41.0 ng/mL and 378.5 ng/mL and 15.9 ng/mL
